The values that follow come from EP1764363A2, “Substituted acetophenonederivatives” (Riemser Arzneimittel AG, priority 2005, dated 2007).

The test system of assay [1] is T47D. As to the kind of experiment: Chemosensitivity test (modified MTT test EZ4U). The note with it: for Zellwachstum in % der Mediumkontrolle: 4 days. On the technique in general: Tetrazolium assays rely on reduction of a dye to a coloured formazan, in cell work by metabolically active cells.
Experimental: (§1) Die Verbindungen wurden in Dimethylsulfoxid (DMSO) als konzentrierte Stammlösungen (100-400fach) gelöst und für Proliferationstests in Zellkulturmedium verdünnt.
(§2) Die Zellen wurden auf Verunreinigung durch Mycoplasmen untersucht. Das Medium wurde mit 10% hitzeinaktiviertem foetalem Kälberserum (Seromed) and 4 mM Glutamin ergänzt. Die Zellen wurden durch Trypsinierung subkultiviert (0.03% Trypsin enthaltend 0.02% EDTA, dreimal pro Woche). Die Trypsinierung wurde durch Verwendung vom komplettem Zellkulturmedium gestoppt. Die Zellzahl wurde unter Verwendung eines TOA Sysmex Microzellzählers (TOA, Tokyo, Japan) bestimmt.
(§3) 10^4 Zellen/well wurden in Mikrotiterplatten mit 96 Vertiefungen (100 µl Medium) verteilt und die zu testenden Verbindungen wurden in einem weiteren Volumen von 100 µl hinzugegeben. Alle Verbindungen wurden entweder in 3 fixen Konzentrationen eingesetzt (für Tabellen 1-3) oder in 10 Stufen verdünnt unter Verwendung von Zweifachverdünnungsschritten zur Bestimmung der IC50-Werte (dreifache Ansätze, in den meisten Fällen vierfache Ansätze). Die Platten wurden, mit der Ausnahme der Tests zur Untersuchung des Zusammenhangs von Applikationsdauer und Zellreaktion, 4 Tage lang unter Zellkulturbedingungen inkubiert und die Zellviabilität wurde unter Verwendung eines modifizierten MTT Tests bestimmt (Formazan-Farbstoffbildung aus Tetrazoliumsalzen wie MTT, XTT, WST-1 und anderen durch das mitochondriale Reduktionsystem Succinattetrazolium Reductase EC 1.3.99.1.; EZ4U nichtradioaktiver Zellproliferations- und Cytotoxizitätstest, Biomedica, Wien, Österreich; Testmanual unter: www.bmgrp.com). Hierbei wurde die mitochondriale Aktivität und dadurch die Zellviabilität/Zellzahl bestimmt. Kurz gesagt wurde das gelieferte Substrat in einer Aktivatorlösung gelöst und 20 µl der Mischung wurden für 2 Stunden pro Vertiefung hinzugegeben (Gesamtvolumen 200 µl). Die optische Dichte wurde bei 450 nm unter Verwendung einer leeren Vertiefung als Referenz in einem Mikroplattenlesegerät (Eurogenetics, Brüssel, Belgien) bestimmt. Für jede Zell-Line wurden Vertiefungen verwendet um das MTT-Signal der Mediumkontrollen ohne Testsubstanzen zu bestimmen. Die Proliferation in den Test-Vertiefungen wurde in Bezug auf diese Kontrollwerte (100%) errechnet. Die Testergebnisse wurden zwischen 0,3 und 1,5 optischer Dichte für langsam bzw. schnellproliferierende Zellen erfasst. Diese Dosis-Wirkungs-Beziehungen wurden verwendet um die IC50 (Konzentration bei der das Wachstum um 50% gehemmt wird) unter Verwendung von PRISM Scientific Software (GraphPad Inc., San Diego, CA) zu berechnen.
In assay [2] the test system is Staphylococcus aureus (Stamm ATCC 6538). As to the kind of experiment: Mouse ear test (in vivo), antiseptic effect. Details: key to Keimwachstum (grade): +++: totale Verhinderung des Keimwachstums; ++: Keimwachstum deutlich reduziert aber nicht völlig unterdrückt. The settings on record: mouse ears infected with S. aureus ATCC 6538; germ count vs infected untreated animal after 18 and 24 h.

For assay [3], the system named is DU 145. As to the kind of experiment: Chemosensitivity test (modified MTT test EZ4U). The settings on record: Homo sapiens, DU-145, 96 h, read-out: IC50-Werte.
Text: as §1
(§4) Mit Ausnahme von SIM, KAL Ewingsarkom (in Wien etabliert) und LAN Neuroblastom (University of Los Angeles) wurden die Zell-Linien von der American Type Culture Collection (ATCC, Rockville, MD) bezogen und zum Erhalt von konfluenten Monolayerkulturen in RPMI-1640 Bikarbonatmedium (Seromed, Berlin, Deutschland) in einem Zellkulturschrank (5% CO2, 37°C) kultiviert. Mit der Ausnahme der murinen NlH3T3 Fibroblasten sind alle verwendeten Zell-Linien humanen Ursprungs. Die Zellen wurden auf Verunreinigung durch Mycoplasmen untersucht. Das Medium wurde mit 10% hitzeinaktiviertem foetalem Kälberserum (Seromed) and 4 mM Glutamin ergänzt. Die Zellen wurden durch Trypsinierung subkultiviert (0.03% Trypsin enthaltend 0.02% EDTA, dreimal pro Woche). Die Trypsinierung wurde durch Verwendung vom komplettem Zellkulturmedium gestoppt. Die Zellzahl wurde unter Verwendung eines TOA Sysmex Microzellzählers (TOA, Tokyo, Japan) bestimmt.
(§5) 10^4 Zellen/well wurden in Mikrotiterplatten mit 96 Vertiefungen (100 µl Medium) verteilt und die zu testenden Verbindungen wurden in einem weiteren Volumen von 100 µl hinzugegeben. […]
For assay [4], the system named is MDA-MB435. The assay is described as follows: Chemosensitivity test (modified MTT test EZ4U). The settings on record: Homo sapiens, MDA-MB-435, 96 h, read-out: IC50-Werte.
Text: as §1, §4, §5
Assay [5] deals with HT29. As to the kind of experiment: Chemosensitivity test (modified MTT test EZ4U). The settings on record: Homo sapiens, HT-29, 96 h, read-out: IC50-Werte.
Text: as §1, §4, §5
Assay [6] has as its system Colo205. As to the kind of experiment: Chemosensitivity test (modified MTT test EZ4U). The note with it: for Zellwachstum in % der Mediumkontrolle: 4 days.
Experimental: as §1, §2, §3
Assay [7] relates to MIAPaCa2. The assay is described as follows: Chemosensitivity test (modified MTT test EZ4U). The note with it: for IC50: Homo sapiens, MIA PaCa-2, 96 h, read-out: IC50-Werte; for Zellwachstum in % der Mediumkontrolle: 4 days.
Experimental: as §1, §2, §3
Assay [8] concerns BxPC3. As to the kind of experiment: Chemosensitivity test (modified MTT test EZ4U). The settings on record: Homo sapiens, BXPC-3, 96 h, read-out: IC50-Werte.
Text: as §1, §4, §5
The subject of assay [9] is WI38. As to the kind of experiment: Chemosensitivity test (modified MTT test EZ4U). The settings on record: for IC50: Homo sapiens, WI-38, 96 h, read-out: IC50-Werte; for Zellwachstum in % der Mediumkontrolle: 4 days.
Experimental: as §1, §2, §3
Assay [10] has as its system BT20. The assay is described as follows: Chemosensitivity test (modified MTT test EZ4U). The note with it: Homo sapiens, BT-20, 96 h, read-out: IC50-Werte.
Text: as §1, §4, §5
For assay [11], the system named is CaCo-2. The assay is described as follows: Chemosensitivity test (modified MTT test EZ4U). The note with it: Homo sapiens, Caco-2, 96 h, read-out: IC50-Werte.
Experimental: as §1, §2, §3
The subject of assay [12] is SW620. As to the kind of experiment: Chemosensitivity test (modified MTT test EZ4U). The settings on record: Homo sapiens, SW-620, 96 h, read-out: IC50-Werte.
Experimental: as §1, §2, §3
The subject of assay [13] is CRO2B. As to the kind of experiment: Chemosensitivity test (modified MTT test EZ4U). The note with it: Homo sapiens, 96 h, read-out: IC50-Werte.
Experimental: as §1, §2, §3
Assay [14] concerns U87MG. As to the kind of experiment: Chemosensitivity test (modified MTT test EZ4U). The settings on record: Homo sapiens, U-87 MG, 96 h, read-out: IC50-Werte.
Text: as §1, §4, §5
The test system of assay [15] is KAL. The assay is described as follows: Chemosensitivity test (modified MTT test EZ4U). The note with it: Homo sapiens, 96 h, read-out: IC50-Werte.
Text: as §1, §4, §5
The test system of assay [16] is J82. As to the kind of experiment: Chemosensitivity test (modified MTT test EZ4U). The settings on record: Homo sapiens, J82, 96 h, read-out: IC50-Werte.
Experimental: as §1, §2
(§6) 10^4 Zellen/well wurden in Mikrotiterplatten mit 96 Vertiefungen (100 µl Medium) verteilt und die zu testenden Verbindungen wurden in einem weiteren Volumen von 100 µl hinzugegeben. Alle Verbindungen wurden entweder in 3 fixen Konzentrationen eingesetzt (für Tabellen 1-3) oder in 10 Stufen verdünnt unter Verwendung von Zweifachverdünnungsschritten zur Bestimmung der IC50-Werte (dreifache Ansätze, in den meisten Fällen vierfache Ansätze). […]
Assay [17] deals with LAN1. As to the kind of experiment: Chemosensitivity test (modified MTT test EZ4U). The note with it: Homo sapiens, LAN1, 96 h, read-out: IC50-Werte.
Experimental: as §1, §2, §6
For assay [18], the system named is Colo205. The assay is described as follows: Cell count determination in a proliferation test. The settings on record: Homo sapiens, COLO 205, read-out: Inhibition des Zellenwachstums (in %).
Text: as §1
(§7) Mit Ausnahme von SIM, KAL Ewingsarkom (in Wien etabliert) und LAN Neuroblastom (University of Los Angeles) wurden die Zell-Linien von der American Type Culture Collection (ATCC, Rockville, MD) bezogen und zum Erhalt von konfluenten Monolayerkulturen in RPMI-1640 Bikarbonatmedium (Seromed, Berlin, Deutschland) in einem Zellkulturschrank (5% CO2, 37°C) kultiviert. […] Die Zellen wurden auf Verunreinigung durch Mycoplasmen untersucht. Das Medium wurde mit 10% hitzeinaktiviertem foetalem Kälberserum (Seromed) and 4 mM Glutamin ergänzt. Die Zellen wurden durch Trypsinierung subkultiviert (0.03% Trypsin enthaltend 0.02% EDTA, dreimal pro Woche). Die Trypsinierung wurde durch Verwendung vom komplettem Zellkulturmedium gestoppt. Die Zellzahl wurde unter Verwendung eines TOA Sysmex Microzellzählers (TOA, Tokyo, Japan) bestimmt.
(§8) Die Zellen wurden in Makroplatten mit 6 Vertiefungen (Greiner, Kremsmünster, Österreich) in einer anfänglichen Zelldichte von 200 000 Zellen/Vertiefung in 4 ml Medium unter Zellkulturbedingungen in Anwesenheit oder Abwesenheit der Testverbindungen (doppelte Ansätze) kultiviert. […]
In assay [19] the test system is T47D. As to the kind of experiment: Cell count determination in a proliferation test. The note with it: Homo sapiens, read-out: Inhibition des Zellenwachstums (in %).
Text: as §1, §7, §8
For assay [20], the system named is EW-7. As to the kind of experiment: Chemosensitivity test (modified MTT test EZ4U). The note with it: Homo sapiens, 96 h, read-out: IC50-Werte.
Text: as §1, §4, §5
Assay [21] concerns SIM. The assay is described as follows: Chemosensitivity test (modified MTT test EZ4U). The note with it: Homo sapiens, 96 h, read-out: IC50-Werte.
Text: as §1, §4, §5
Assay [22] concerns LNCaP. The assay is described as follows: Chemosensitivity test (modified MTT test EZ4U). The settings on record: Homo sapiens, 96 h, read-out: IC50-Werte.
Text: as §1, §4, §5
Assay [23] has as its system SKOV3. As to the kind of experiment: Chemosensitivity test (modified MTT test EZ4U). The settings on record: Homo sapiens, SK-OV-3, 96 h, read-out: IC50-Werte.
Experimental: as §1, §2, §6
Assay [24] relates to BT20. The assay is described as follows: Cell count determination in a proliferation test. The note with it: Homo sapiens, BT-20, read-out: Inhibition des Zellenwachstums (in %).
Text: as §1, §7, §8
The test system of assay [25] is S. epidermides. As to the kind of experiment: Minimal inhibitory concentration (MHK), microtitre plate, TTC staining. Format: cell-based. The settings on record: 48h, 36°C.
The test system of assay [26] is Candida albicans. Described as above. Format: cell-based. The note with it: 48h, 36°C.
The subject of assay [27] is Bacillus subitilis. Described as above. The class given is cell-based. The settings on record: 48h, 36°C.
For assay [28], the system named is S. aureus. The assay is described as above. Format: cell-based. The settings on record: 48h, 36°C.
In assay [29] the test system is Escherichia coli. Described as above. The note with it: 48h, 36°C. Format: cell-based.
Assay [30] concerns Rhodococcus equi. The description is as above. Format: cell-based. The settings on record: 48h, 36°C.
Assay [31] concerns E. hirae. The assay is described as above. Format: cell-based. The settings on record: 48h, 36°C.
The subject of assay [32] is Salmonella sp. The assay is described as above. The settings on record: 48h, 36°C. Format: cell-based. An excerpt:
Das Inokulum für die Tests wurde durch Verdünnung der Mikroorganismen in wässriger 0,85% NaCI-Lösung hergestellt, die Verdünnung auf die Stufe 0,5 nach McFarland eingestellt und die Konzentration spektrometrisch bei einer Wellenlänge von 580nm überprüft. Die Zellsuspensionen wurden zur Verwendung in den Tests auf 10^4 UFC/ml verdünnt. Die MHK-Tests erfolgten (Vorschrift nach J. N. P. Eloff, Planta Medica, Vol. 64, 1998, p 711-713) in Mikrotiterplatten mit 96 Vertiefungen. Serienverdünnungen der Konzentrationen lagen im Bereich 1,00 - 0,0015 mg/mL. Als Kontrollsubstanzen dienten Chloramphenicol bzw. Nistatin (Merck) in einer Konzentration von 0,062 - 0,005 mg/ml bzw. 0,0125 - 0,001 mg/ml. Das Inokulum (100 µl) wurde in alle Vertiefungen gegeben und die Platten für 48h bei 36°C inkubiert. Die antimikrobielle Aktivität wurde durch Zugabe von 20 µl einer 0,5% igen wässrigen Lösung von TTC (Tetrazoliumchlorid, Merck) pro Vertiefung detektiert. Die minimale Hemmkonzentration (MHK) wird als die niedrigste Konzentration der Verbindung definiert die das sichtbare Wachstum hemmt (durch TTC-Färbung indiziert).

The test system of assay [33] is Micrococcus luteus. Described as above. The class given is cell-based. The note with it: 48h, 36°C.
Assay [34] deals with S. falcium. The assay is described as above. Format: cell-based. The note with it: 48h, 36°C.

The structures appear in SMILES notation. ≈ marks a conversion by molar mass, not a printed value.

One may read the IC50 as the point on the concentration scale where inhibition reaches its midpoint. For `COc1cc(C2CC(=O)c3ccccc3O2)ccc1OCC=C(C)C` (stereo not drawn) [Q25, 2-[3-Methoxy-4-(3-methylbut-2-enyloxy)phenyl]chroman-4-on], the IC50 in [1] (Homo sapiens, T47D, 96 h, read-out: IC50-Werte) came out at 10 µg/mL (≈ 29.6 µM); in [3], 15 µg/mL (≈ 44.3 µM); in assay [4], 34 µg/mL (≈ 100 µM); in assay [5] it was 18 µg/mL (≈ 53.2 µM); in [6] (Homo sapiens, COLO 205, 96 h, read-out: IC50-Werte), 75 µg/mL (≈ 222 µM); in assay [7], 57 µg/mL (≈ 168 µM). Moreover, the IC50 in assay [8] worked out at 80 µg/mL (≈ 236 µM); in [9], 8.2 µg/mL (≈ 24.2 µM); in [10] it was 45 µg/mL (≈ 133 µM); in assay [11], 18 µg/mL (≈ 53.2 µM); in assay [12], 84 µg/mL (≈ 248 µM); in [13], 6 µg/mL (≈ 17.7 µM). Also, the “Keimwachstum (grade)” value in [2] is “++”. In addition, the Keimwachstum reduziert auf in assay [2] turned out to be 30%.

One may read the inhibition as the relative decrease from the control value, in per cent. For `O=C(/C=C/c1ccc(CO)o1)c1ccc(Cl)cc1` [HMF-2, 1-(4-Chlorophenyl)-3-(5-hydroxymethylfuran-2-yl)propenon], the “Zellwachstum in % der Mediumkontrolle” value in [1] (T47D (Mamakarzinom), 5 µg/ml) is recorded as 25,60%; in assay [1] (T47D (Mamakarzinom), 10 µg/ml), 4,90%; in [1] (T47D (Mamakarzinom), 2,5 µg/ml), 28,10%; in assay [6] (Colo205 (Colon), 5 µg/ml), 78,6%; in assay [6] (Colo205 (Colon), 10 µg/ml), 41,30%; in assay [6] (Colo205 (Colon), 2,5 µg/ml), 84,80%. Moreover, the “Zellwachstum in % der Mediumkontrolle” value was 91,10% in assay [7] (MIAPaCa2 (Pankreas), 5 µg/ml); 74,60% in assay [7] (MIAPaCa2 (Pankreas), 10 µg/ml); 84,30% in [7] (MIAPaCa2 (Pankreas), 2,5 µg/ml); 92,90% in assay [9] (WI38 (Fibroblasten), 5 µg/ml); 10,60% in assay [9] (WI38 (Fibroblasten), 10 µg/ml); 104,7% in assay [9] (WI38 (Fibroblasten), 2,5 µg/ml). Also, in assay [2], the “Keimwachstum (grade)” value is “+++”. Besides, the IC50 is > 200 µg/mL in assay [14]; 45 µg/mL (≈ 171 µM) in assay [15]; 47 µg/mL (≈ 179 µM) in assay [16]; 4.25 µg/mL (≈ 16.2 µM) in assay [17]; 10 µg/mL (≈ 38.1 µM) in assay [7]; 4.9 µg/mL (≈ 18.7 µM) in assay [9]. Besides, the IC50 in assay [20] is 0.3 µg/mL (≈ 1.14 µM); in assay [21], > 200 µg/mL; in assay [22], 3.25 µg/mL (≈ 12.4 µM); in assay [23], 36 µg/mL (≈ 137 µM); in assay [11], 17.5 µg/mL (≈ 66.6 µM); in assay [12], 0.85 µg/mL (≈ 3.24 µM). Further, the IC50 in assay [13] was found to be 50 µg/mL (≈ 190 µM). For the same compound, the results for the inhibition at 50 µg/mL in assay [18], in assay [19] and in [24] were 35.6%, 75.6% and 74%, respectively.

As for `COc1cc(/C=C/C(=O)c2ccccc2O)ccc1OCC=C(C)C` [Q21, 1-(2-Hydroxyphenyl)-3-[3-methoxy-4-(3-methylbut-2-enyloxy)phenyl]propenon], the MHK-Werte in assay [25] is listed as >1,0 mg/ml; in [26] it was 0,6 mg/ml; in [27], >1,0 mg/ml; in [28] it was >1,0 mg/ml; in assay [29], >1,0 mg/ml; in assay [30], >1,0 mg/ml. Moreover, the MHK-Werte is given as >1,0 mg/ml in [31], 0,9 mg/ml in assay [32], >1,0 mg/ml in assay [33] and 0,8 mg/ml in assay [34].

As for `O=C(/C=C/c1ccc(CO)o1)c1ccccc1O` [HMF-3, 3-(5-Hydroxymethylfuran-2-yl)-1-(2-hydroxyphenyl)-propenon], the “Zellwachstum in % der Mediumkontrolle” value was 50,00% in assay [1] (T47D (Mamakarzinom), 5 µg/ml); 50,20% in assay [1] (T47D (Mamakarzinom), 10 µg/ml); 39,10% in [1] (T47D (Mamakarzinom), 2,5 µg/ml); 68% in assay [6] (Colo205 (Colon), 5 µg/ml); 82,60% in assay [6] (Colo205 (Colon), 10 µg/ml); 85,90% in [6] (Colo205 (Colon), 2,5 µg/ml). Also, the “Zellwachstum in % der Mediumkontrolle” value in [7] (MIAPaCa2 (Pankreas), 5 µg/ml) is given as 81,80%; in [7] (MIAPaCa2 (Pankreas), 10 µg/ml), 50,60%; in [7] (MIAPaCa2 (Pankreas), 2,5 µg/ml), 84,10%; in assay [9] (WI38 (Fibroblasten), 5 µg/ml), 64,70%; in [9] (WI38 (Fibroblasten), 10 µg/ml) it was 81,50%; in assay [9] (WI38 (Fibroblasten), 2,5 µg/ml), 92%. Besides, the IC50 is > 200 µg/mL in [14]; > 200 µg/mL in assay [15]; > 200 µg/mL in assay [16]; 20 µg/mL (≈ 81.9 µM) in assay [17]; > 200 µg/mL in [7]; 20 µg/mL (≈ 81.9 µM) in assay [9]. The IC50 in assay [20] was 5.25 µg/mL (≈ 21.5 µM); in assay [21], > 200 µg/mL; in assay [22] it was 9.5 µg/mL (≈ 38.9 µM); in assay [23], > 200 µg/mL; in assay [11], > 200 µg/mL; in assay [12], 9.7 µg/mL (≈ 39.7 µM). For the same compound, the IC50 in [13] is > 200 µg/mL. Moreover, the inhibition at 50 µg/mL in [18] was 3.5%; in assay [19] it was 57%; in assay [24] it was 15.7%.
